Measured values from the NIST ThermoML archive (doi:10.1021/je400879v).

Experiment: molar heat capacity at constant pressure
Details: 101.33 kPa, Crystal

COC(=O)[C@H](Cc1ccccc1)NC(=O)[C@H](CC(C)C)NC(=O)[C@H](CCSC)NC=O [methyl formyl-L-methionyl-L-leucyl-L-phenylalaninate]
Details | molar heat capacity at constant pressure [J/K/mol]
5 K | 1.99
6.02 K | 2.6
6.13 K | 2.71
6.28 K | 2.91
6.43 K | 3.21
6.59 K | 3.52
6.73 K | 3.88
6.88 K | 4.29
7.04 K | 4.56
7.19 K | 4.97
7.35 K | 5.42
7.52 K | 5.83
7.66 K | 6.28
7.84 K | 6.73
7.98 K | 7.23
8.17 K | 7.72
8.33 K | 8.13
8.5 K | 8.58
8.7 K | 9.08
8.84 K | 9.48
8.98 K | 9.89
9.13 K | 10.3
9.3 K | 10.7
9.45 K | 11
9.62 K | 11.5
9.78 K | 11.8
9.95 K | 12.3
10 K | 12.5
10.27 K | 13.2
10.63 K | 14.1
11.04 K | 15
11.45 K | 16
11.88 K | 17.1
12.29 K | 18
12.79 K | 19.2
13.24 K | 20.4
13.71 K | 21.7
14.18 K | 22.7
14.65 K | 24.1
15 K | 25.1
15.12 K | 25.3
15.6 K | 26.78
15.99 K | 28
16.64 K | 29.85
17.1 K | 31.58
17.62 K | 33.24
18.1 K | 34.79
18.78 K | 37.21
19.22 K | 38.75
19.72 K | 40.59
20 K | 41.76
21.41 K | 47.32
23.4 K | 55.2
25 K | 61.13
25.67 K | 63.45
27.96 K | 71.89
30 K | 79.28
30.29 K | 80.5
32.65 K | 88.71
35.04 K | 96.64
37.44 K | 105
39.87 K | 112.9
40 K | 113.3
42.32 K | 120.6
44.78 K | 127.7
47.26 K | 134.1
49.75 K | 139.9
50 K | 140.8
52.01 K | 145.9
54.78 K | 153.1
57.3 K | 160.1
59.87 K | 167.1
60 K | 167.6
62.41 K | 174.3
64.96 K | 181.3
66.9 K | 186.5
70 K | 194.3
70.06 K | 194.1
72.6 K | 201
75.15 K | 206
77.73 K | 212.1
80 K | 216.1
80.1 K | 216.1
82.93 K | 221.7
85.5 K | 227
88.2 K | 232.3
90 K | 236.3
90.6 K | 238.4
90.85 K | 237.1
93.51 K | 243.4
96.19 K | 248.8
98.88 K | 253.3
100 K | 256.4
101.58 K | 258.9
104.28 K | 264
106.98 K | 269.4
109.69 K | 274.9
110 K | 275.6
112.38 K | 279.5
115.08 K | 284.3
117.78 K | 289.3
120 K | 292.9
120.47 K | 293.3
123.16 K | 297.5
125.85 K | 302.5
128.53 K | 306.7
130 K | 309.1
131.22 K | 310.6
133.99 K | 316.2
136.67 K | 319.1
139.35 K | 323.5
140 K | 324.7
142.02 K | 328.1
144.68 K | 332.5
147.35 K | 336.5
150 K | 340.1
150.01 K | 340.6
152.68 K | 344.7
155.33 K | 348.5
157.99 K | 352.9
160 K | 355.6
160.64 K | 357.2
163.28 K | 361.6
165.92 K | 365.7
168.56 K | 368.7
170 K | 371.3
171.19 K | 373.7
174.6 K | 377.8
176.09 K | 381.5
179.5 K | 385.9
180 K | 387.3
182.11 K | 390.6
184.71 K | 394.8
187.31 K | 398.3
189.9 K | 402.2
190 K | 403.7
192.49 K | 407.4
195.07 K | 411.8
197.64 K | 416.1
200 K | 420.3
200.2 K | 420
202.74 K | 423.8
205.27 K | 428.2
207.77 K | 433.6
210 K | 437.2
210.28 K | 436.5
212.77 K | 442.5
215.23 K | 446.4
217.6 K | 450.8
220 K | 454.3
220.02 K | 455.6
222.4 K | 459.1
224.71 K | 463.1
227.02 K | 467.1
229.33 K | 471.1
230 K | 471.6
231.66 K | 475.2
234 K | 478.4
236.36 K | 484.2
238.72 K | 488
240 K | 489
241.09 K | 490.9
243.46 K | 493.2
245.83 K | 498.9
248.18 K | 503
250 K | 506.5
250.5 K | 507.1
252.78 K | 509.6
254.83 K | 514.5
257.07 K | 518.7
259.3 K | 523.3
260 K | 524.3
261.5 K | 528
263.68 K | 532.6
265.84 K | 535.2
267.99 K | 539.2
270 K | 542.4
270.16 K | 543.2
272.34 K | 547.3
274.5 K | 552.1
276.67 K | 554.9
277.1 K | 557.8
279.97 K | 561.2
280 K | 561.1
282.11 K | 564.9
284.23 K | 568.8
286.34 K | 571.5
288.8 K | 578
290 K | 580.7
290.49 K | 581
292.53 K | 584.6
294.54 K | 587.8
296.39 K | 591.6
298.15 K | 597.6
298.4 K | 596.2
300 K | 601.6
300.24 K | 601.4
302.09 K | 606.6
304.77 K | 614.7
307.42 K | 619.1
309.83 K | 624.8
310 K | 624.4
312.19 K | 631
314.41 K | 635
316.68 K | 638.7
318.91 K | 645.4
320 K | 649.7
321.09 K | 652.2
323.22 K | 661.1
325.19 K | 665.5
327.12 K | 669.6
329.13 K | 677.2
330 K | 678.4
330.96 K | 681.9
332.75 K | 688.8
334.5 K | 691.9
335.18 K | 695
336.88 K | 700.5
338.54 K | 704.4
340 K | 711.3
340.17 K | 710.6
341.74 K | 717
343.27 K | 723.9
344 K | 726
